Test results as given in PubChem BioAssay AID1963831 (Molecular Pharmacology Branch, DTP, NCI, 2024).
Where “and” joins values, the source holds several entries; their conditions need not be identical. Identical values can stand only once.

System: 889142-216-R-J1-PDC complex spheroid viability
Experiment: Anticancer human tumor 889142-216-R-J1-PDC patient-derived bladder carcinoma cell line growth inhibition [POLQ]
Settings: for viability, T/C: stronger effect = lower value
Method: Multicellular complex tumor spheroid response to Polymerase (POL) inhibitors (novobiocin, ART-558, RP6685) in combination with a variety of drugs and investigational agents in selected tumor cell lines
The POL inhibitors (novobiocin, ART-558, and RP6685) were evaluated both individually and in combination with standard of care and investigational anticancer small molecules within a complex spheroid model of solid tumors. . Complex spheroids include a stromal component modeled by human endothelial cells (HUVEC) and fibroblasts modeled by human mesenchymal stem cells (MSCs). The concentration ranges selected for each drug and investigational agent were based upon clinically achievable concentrations if the clinical Cmax of the agent was known.
Compounds. The drugs and investigational agents: novobiocin (NSC847541), ART-558 (NSC835418), RP-6685 (NSC848927), peposertib (NSC802822), ceralasertib (NSC780249), elimusertib (NSC800525), camonsertib (NSC841442), AZD-1390 (NSC803789), olaparib (NSC753686), talazoparib (NSC767125), rucaparib (NSC756644), sotorasib (NSC818433), MRTX-1133 (NSC836407), SN-38 (NSC673596), topotecan (NSC609699), epotoside (NSC141540), doxorubicin (NSC123127), gemcitabine (NSC613327), 5-fluorouracil (NSC19893), paclitaxel (NSC125973), vemurafenib (NSC761431), MSA-2 (NSC828583), SN-011 (NSC837082), adavosertib (NSC754352), prexasertib (NSC758257), carboplatin (NSC241240) and oxaliplatin (NSC266046), were obtained from the National Cancer Institute (NCI) Developmental Therapeutics Program Chemical Repository (21). The FDA-approved anticancer drug set is available from the Developmental Therapeutics Program at https://dtp.cancer.gov/organization/dscb/obtaining/. […] The stock solutions were prepared in dimethyl sulfoxide (DMSO, Sigma-Aldrich, St. Louis, MO, cat. D2650), except for the platinum compounds which were prepared in saline (Quality Biological, Gaithersburg, MD, cat. 114-055-101), at 800-fold the tested concentration and stored at -70 degrees C prior to their use. All drugs and investigational agents were tested over a range starting from a high concentration at or near the clinical Cmax and decreasing in half-log increments. If the clinical Cmax for an agent had not been determined, the highest concentration tested was 10 microM, except for SN-38, which was tested at a high concentration of 1 microM.
Cell Culture. All cells were maintained in an incubator at 37 degrees C and 5% CO2 with 95% humidity. The PDC lines were cultured according to standard operating procedures established by the NCI PDMR (https://pdmr.cancer.gov). Table 3 of the manuscript, lists the cell lines along with the number of the three cell types plated to form the mct-spheroids and media for tumor cell growth. After thawing, all PDC lines, except 997537-175-T-J1-PDC and 415267-285-R-J2-PDC, were cultured in Matrigel-coated flasks prepared with a working solution of 1X Ham's F-12 nutrient mix, without supplementation (Thermo Fisher Scientific, cat. 11765054), 100 U/mL penicillin-streptomycin (Thermo Fisher Scientific, cat. 15140122), and 2.5% Matrigel (Corning Inc., Corning, NY, cat. 354248) for the first three passages. The two PDC lines 997537-175-T-J1-PDC and 415267-285-R-J2-PDC were cultured on uncoated flasks. The 857933-349-R-J2-PDC line was cultured in 6C/Colon 1B media containing advanced DMEM/F-12 (Thermo Fisher Scientific, cat. 12634028), 10 mM HEPES (Thermo Fisher Scientific, cat. 15630080), 1X GlutaMAX supplement (Thermo Fisher Scientific, cat. 35050061), 0.1 mg/mL primocin (InvivoGen, San Diego, CA, cat. ant-pm-2), 10% defined fetal bovine serum, heat inactivated (HyClone Laboratories Inc., Logan, UT, cat. SH30070.03HI), 50% L-WRN conditioned media (ATCC, cat. CRL-3276), 1.25 mM N-Acetyl-L-cysteine (Sigma-Aldrich, cat. A9165), 10 mM nicotinamide (Sigma-Aldrich, cat. N0636), 1X B-27 supplement (Thermo Fisher Scientific, cat. 17504044), 1X N-2 supplement (Thermo Fisher Scientific, cat. […]

[1] = curve of first compound, second compound 0.0316 µM
[2] = curve of first compound, second compound 0.1 µM
[3] = curve of first compound, second compound 0.316 µM
[4] = curve of first compound, second compound 1 µM
[5] = curve of first compound, second compound 3.16 µM
[6] = curve of first compound, second compound 10 µM
[7] = second compound 0.0316 µM, first compound 0.0316 µM
[8] = second compound 0.0316 µM, first compound 0.1 µM
[9] = second compound 0.0316 µM, first compound 0.316 µM
[10] = second compound 0.0316 µM, first compound 1 µM
[11] = second compound 0.1 µM, first compound 0.0316 µM
[12] = second compound 0.1 µM, first compound 0.1 µM
[13] = second compound 0.1 µM, first compound 0.316 µM
[14] = second compound 0.1 µM, first compound 1 µM
[15] = second compound 0.316 µM, first compound 0.0316 µM
[16] = second compound 0.316 µM, first compound 0.1 µM
[17] = second compound 0.316 µM, first compound 0.316 µM
[18] = second compound 0.316 µM, first compound 1 µM
[19] = second compound 1 µM, first compound 0.0316 µM
[20] = second compound 1 µM, first compound 0.1 µM
[21] = second compound 1 µM, first compound 0.316 µM
[22] = second compound 1 µM, first compound 1 µM
[23] = second compound 3.16 µM, first compound 0.0316 µM
[24] = second compound 3.16 µM, first compound 0.1 µM
[25] = second compound 3.16 µM, first compound 0.316 µM
[26] = second compound 3.16 µM, first compound 1 µM
[27] = second compound 10 µM, first compound 0.0316 µM
[28] = second compound 10 µM, first compound 0.1 µM
[29] = second compound 10 µM, first compound 0.316 µM
[30] = second compound 10 µM, first compound 1 µM
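Also: spheroids exposed to compounds for seven days.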
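For viability, T/C in this document: 100% = DMSO vehicle control viability.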

CCc1c2c(nc3ccc(O)cc13)-c1cc3c(c(=O)n1C2)COC(=O)[C@]3(O)CC + Cc1cccc(N(C)C(=O)C2C(O)CCN2c2nc(C)cc(C(F)(F)F)c2C#N)c1
IC50 [1]: 20.6 nM | IC50 [2]: 17 nM | IC50 [3]: 14 nM | IC50 [4]: 14.5 nM | IC50 [5]: 19.4 nM | IC50 [6]: 6.21 nM | viability, T/C (second compound 0.0316 µM, first compound 0.00316 µM): 68.8% | viability, T/C (second compound 0.0316 µM, first compound 0.01 µM): 48.8% | viability, T/C [7]: 50.4% | viability, T/C [8]: 30.2% | viability, T/C [9]: 35.8% | viability, T/C [10]: 10.7% | viability, T/C (second compound 0.1 µM, first compound 0.00316 µM): 58.9% | viability, T/C (second compound 0.1 µM, first compound 0.01 µM): 56% | viability, T/C [11]: 44.7% | viability, T/C [12]: 34% | viability, T/C [13]: 28.4% | viability, T/C [14]: 10.4% | viability, T/C (second compound 0.316 µM, first compound 0.00316 µM): 58.4% | viability, T/C (second compound 0.316 µM, first compound 0.01 µM): 57.3% | viability, T/C [15]: 37.2% | viability, T/C [16]: 35.6% | viability, T/C [17]: 27.7% | viability, T/C [18]: 8.37% | viability, T/C (second compound 1 µM, first compound 0.00316 µM): 64% | viability, T/C (second compound 1 µM, first compound 0.01 µM): 51.3% | viability, T/C [19]: 39% | viability, T/C [20]: 35.3% | viability, T/C [21]: 31.1% | viability, T/C [22]: 9.07% | viability, T/C (second compound 3.16 µM, first compound 0.00316 µM): 60.5% | viability, T/C (second compound 3.16 µM, first compound 0.01 µM): 60.4% | viability, T/C [23]: 40.9% | viability, T/C [24]: 34% | viability, T/C [25]: 30.3% | viability, T/C [26]: 5.91% | viability, T/C (second compound 10 µM, first compound 0.00316 µM): 52% | viability, T/C (second compound 10 µM, first compound 0.01 µM): 51.9% | viability, T/C [27]: 35.9% | viability, T/C [28]: 34.7% | viability, T/C [29]: 26.1% | viability, T/C [30]: 6.24%

O=c1[nH]cc(F)c(=O)[nH]1 + Cc1cccc(N(C)C(=O)C2C(O)CCN2c2nc(C)cc(C(F)(F)F)c2C#N)c1
IC50 [1]: > 10000 nM | IC50 [2]: > 10000 nM | IC50 [3]: > 10000 nM | IC50 [4]: > 10000 nM | IC50 [5]: > 10000 nM | IC50 [6]: > 10000 nM | viability, T/C [7]: 96% | viability, T/C [8]: 85.2% | viability, T/C [9]: 81.1% | viability, T/C [10]: 94% | viability, T/C (second compound 0.0316 µM, first compound 3.16 µM): 63.6% | viability, T/C (second compound 0.0316 µM, first compound 10 µM): 61% | viability, T/C [11]: 102% | viability, T/C [12]: 84.3% | viability, T/C [13]: 75.9% | viability, T/C [14]: 54.4% | viability, T/C (second compound 0.1 µM, first compound 3.16 µM): 63.7% | viability, T/C (second compound 0.1 µM, first compound 10 µM): 65.1% | viability, T/C [15]: 109% | viability, T/C [16]: 99.3% | viability, T/C [17]: 73.6% | viability, T/C [18]: 71.3% | viability, T/C (second compound 0.316 µM, first compound 3.16 µM): 79.1% | viability, T/C (second compound 0.316 µM, first compound 10 µM): 77.7% | viability, T/C [19]: 93.4% | viability, T/C [20]: 93.2% | viability, T/C [21]: 74.3% | viability, T/C [22]: 72% | viability, T/C (second compound 1 µM, first compound 3.16 µM): 71.8% | viability, T/C (second compound 1 µM, first compound 10 µM): 73.1% | viability, T/C [23]: 80.8% | viability, T/C [24]: 87.6% | viability, T/C [25]: 80.3% | viability, T/C [26]: 88.9% | viability, T/C (second compound 3.16 µM, first compound 3.16 µM): 83% | viability, T/C (second compound 3.16 µM, first compound 10 µM): 65.9% | viability, T/C [27]: 71% | viability, T/C [28]: 79.9% | viability, T/C [29]: 83.3% | viability, T/C [30]: 64.1% | viability, T/C (second compound 10 µM, first compound 3.16 µM): 70.3% | viability, T/C (second compound 10 µM, first compound 10 µM): 65%

CCc1c2c(nc3ccc(O)cc13)-c1cc3c(c(=O)n1C2)COC(=O)[C@]3(O)CC
viability, T/C (compound 0.00316 µM): 58.4% and 64.9% | viability, T/C (compound 0.01 µM): 50.7% and 50.6% | viability, T/C (compound 0.0316 µM): 40.2% and 47.8% | viability, T/C (compound 0.1 µM): 33.7% and 31.8% | viability, T/C (compound 0.316 µM): 29.5% and 27.7% | viability, T/C (compound 1 µM): 11.7% and 9.45% | IC50 (curve of compound): 10.9 nM and 17.3 nM
